Laboratory results: patent US4687780A, “Anti-tumor compounds of platinum” (Johnson Matthey PLC, priority 1985, dated 1987)

Columns and labels:
[1] = reported by Harrap; cited from earlier work
[2] = pharmacokinetic tests: Pt in blood and cumulative percentage dose in urine, cage wash and faeces after oral administration; format: in vivo, female Balb C^- mice; conditions: oral, JM-8 at 50 mg/kg
Description: (§1) Additionally, the same compounds were tested for activity against ADJ/PC6A plasmacytoma grown subcutaneously in female Balb C^- mice following oral administration as a suspension in arachis oil. Dosage levels were at 100μ mole/kg of body weight for pharmacokinetic tests to establish the extent of absorption into the systemic circulation.
(§2) Results are presented in terms of concentration (μg/ml) of Pt in the blood and cumulative percentage dose in urine, cage wash and faeces, all after specified time intervals. Results for anti-tumor effect are expressed as LD50 (mg/kg), ED90 (mg/kg), and TI (LD50 /ED90). The figures for LD50 (the dose level causing 50% deaths) and ED90 (the dose level causing a 90% reduction in tumor size) are determined by administering dosage levels ranging from lethal to non-tumor inhibitory. The therapeutic index (TI) is an indication of the selectivity of the compound as an anti-tumor agent.

B16 melanoma = test: anti-tumor activity against B16 melanoma in BDF1 female mice, i.p. 9 daily doses; format: in vivo; conditions: 9 daily doses from Day 1
Description: (§3) Compounds according to the invention were screened for anti-tumor activity against L1210 leukaemia and B16 melanoma in mice. The compounds were administered intraperitoneally as solutions or suspensions in water and "Tween" 80 as carrier to CDF1 male mice (L1210) and BDF1 female mice (B16). […] For each dose level, results are quoted in terms of median survival time (MST); the comparative effect (i.e. MST/MST control×100); average weight change (AWC) by Day 5 (L1210) or Day 6 (B16); and the number of mice alive (MA) at Day 5 (L1210) or Day 10 (B16).
(§4) Results were as follows for the compounds as prepared in Examples 3 and 4.
2. B16 (0.5 ml 10% BREI): treatment consisted of 9 daily doses beginning at Day 1.

malignant tumor = conditions: Phase I, reported by Harrap; cited from earlier work
L1210 leukaemia = test: anti-tumor activity against L1210 leukaemia in CDF1 male mice, i.p. single dose Day 1; format: in vivo; conditions: single dose Day 1
Description: as §3, §4
1. L1210 (1×10^6 cells): treatment consisted of single dose on Day 1.

[3] = LD50 (dose level causing 50% deaths), oral administration; format: in vivo, female Balb C^- mice; conditions: suspension in arachis oil
Description: as §1, §2

ADJ/PC6A plasmacytoma = test: activity against ADJ/PC6A plasmacytoma grown subcutaneously in mice, oral administration; format: in vivo, female Balb C^- mice
Description: as §1, §2

## N.N.O=C([O-])C(O)C(=O)[O-].[Pt+2] [JM-5, diammine(2-hydroxymalonato)platinum(II)]
[1]
  screening results: only moderately promising on screening results

## [NH2][Pt]1([NH2])[O]C(=O)C2(CCC2)C(=O)[O]1 [JM-8, reference compound]
[2]; 1 hr
  Blood conc. of Pt: 2.4 μg/ml of whole blood
[2]; 2 hrs
  Blood conc. of Pt: 1.7 μg/ml of whole blood
[2]; 4 hrs
  Blood conc. of Pt: 0.72 μg/ml of whole blood
[2]; 7 hrs
  Blood conc. of Pt: 0.63 μg/ml of whole blood
[2]; 24 hrs
  Blood conc. of Pt: 0.25 μg/ml of whole blood
  Urine dose (cumulative %): 10.3%
[2]; 48 hrs
  Blood conc. of Pt: 0.25 μg/ml of whole blood
  Urine dose (cumulative %): 10.8%
B16 melanoma; 2 mg/kg
  % T/C (MST/MST control×100): 112%
B16 melanoma; 4 mg/kg
  % T/C (MST/MST control×100): 115%
B16 melanoma; 8 mg/kg
  % T/C (MST/MST control×100): 150%
B16 melanoma; 16 mg/kg
  % T/C (MST/MST control×100): 176%
B16 melanoma; 32 mg/kg
  % T/C (MST/MST control×100): 176%
Malignant tumor
  Phase I clinical trial outcome: reasonably promising on a Phase I clinical trial
  side-effects in Phase I clinical trial: myelosuppression and to a lesser extent vomiting remained troublesome
L1210 leukaemia; 4 mg/kg
  % T/C (MST/MST control×100): 100%
L1210 leukaemia; 8 mg/kg
  % T/C (MST/MST control×100): 121%
L1210 leukaemia; 16 mg/kg
  % T/C (MST/MST control×100): 143%
L1210 leukaemia; 32 mg/kg
  % T/C (MST/MST control×100): 171%
L1210 leukaemia; 64 mg/kg
  % T/C (MST/MST control×100): 150%
L1210 leukaemia; 128 mg/kg
  % T/C (MST/MST control×100): 86%
[3]
  LD50 (dose level causing 50% deaths): 235 mg/kg
ADJ/PC6A plasmacytoma
  therapeutic index TI (LD50/ED90): 2.4
ADJ/PC6A plasmacytoma; suspension in arachis oil
  ED90 (dose level causing a 90% reduction in tumor size): 99 mg/kg

## CCC(C(=O)[O-])C(=O)[O-].N.N.[Pt+2] [JM-10, diammine(2-ethylmalonato)-platinum(II)]
[1]
  screening results: only moderately promising on screening results
